According to a melting point compilation (Tetko et al.; mined from patent text by program, amines drawn as free bases though some values may be those of a salt):

SMILES | melting point [°C]
C=CCn1c(=O)n(-c2ccc3c(c2)OCO3)c2ncccc21 | 100
Oc1nc2ccc(F)cc2nc1O | > 300
CCOC(=O)[C@H](CCc1ccccc1)N[C@@H](Cc1ccccc1)C(=O)NCCc1scnc1C(=O)O | 121 to 124
Cc1cc(C)n(C(=O)C(Cc2ccccc2)NS(=O)(=O)c2ccc(Cl)cc2)n1 (stereo not drawn) | 137 to 138
CCCCCCCCC(=O)NCc1ccc(C#N)cc1 | 185 to 187
O=C(NCCCl)Oc1ccccc1 | 65 to 67
O=C1O[C@@H](Cn2ccnn2)CN1c1ccc(-c2ccc(C3=NOC(C(O)c4ccccc4)C3)nc2)c(F)c1 (stereo partly drawn) | 182
O=C1CCN(Cc2ccc(C(F)(F)F)cc2C(F)(F)F)CC1C(c1ccc(F)cc1)c1ccc(F)cc1 (stereo not drawn) | 104 to 105
O=CNc1ccc(Cl)cc1C(=O)c1ccccc1Cl | 106 to 107
O=c1[nH]c2cc([N+](=O)[O-])ccc2c(=O)n1N1CC=C(c2ccc(Cl)cc2)CC1 | 210 to 212
CC(C)c1nc(C(C)C)c(CCCCO)c(-c2ccc(F)cc2)c1CO | 135 to 137
O=c1[nH]c2ccccc2n1CCCN1CCN(C(c2ccc(Cl)cc2)c2cccnc2)CC1 (stereo not drawn) | 183
Cc1nnc(NCCN2CCC(Nc3nc4ccccc4n3Cc3ccc(F)cc3)CC2)s1 | 191
COc1cc(Nc2c(C#N)cnc3cc(-c4cnc(C=O)n4C)sc23)c(Cl)cc1Cl | 225 to 227
Cc1oncc1C(=O)N1CCN(c2ccc(NC(=O)c3cnn(-c4ccc(F)cc4)c3C)cc2C#N)CC1 | 208
NNC(=O)C1(N)CCN(Cc2ccccc2)CC1 | 231
COC(=O)Nc1nc(-c2ccccc2)c(-c2nc3ccccc3c(=O)n2-c2ccc(Cl)cc2)s1 | > 275
COC12CC(C)(c3nnc(-c4cncc(Br)c4)o3)CN(C)C1Cc1cn(C)c3cccc2c13 (stereo not drawn) | 171 to 174
CC(C)(C)NC(=O)c1ccc(Cl)cc1 | 136 to 137
COC(=O)CCCC(=O)c1ccc(OCCCC/C=C/c2ccc(OC)cc2)c(O)c1 | 78 to 80
CC(C#N)CNc1ccccc1[N+](=O)[O-] (stereo not drawn) | 44 to 47
COC(=O)C(Cc1ccc(OCCn2c(=O)oc3cc(C(O)c4ccccc4)ccc32)cc1)C(=O)OC (stereo not drawn) | 84 to 87
CC12CCC3C(CCC4CC5OC5CC43C)C1CC(N1CCCC1)C2=O (stereo not drawn) | 146
CC(C)n1nc(-c2c(OCC(N)=O)nc(N)nc2-c2ccccc2)ccc1=O | 257 to 261
CCOC(=O)CCCn1c2c(c(=O)n3nc(-c4ccccc4)cc13)CN(C1CCCCC1)C2=O | 195 to 196

SMILES | melting point [°C]
O=C(O)COc1ccc(C2=CC(=O)CCC2)c(Cl)c1Cl | 197 to 198
Cc1cccc2sc(=O)[nH]c12 | 207 to 208
COCC(=O)C(=NNc1ccccc1F)C(=O)OC | 121 to 126
COc1ccc(CCNC(=O)CCC2(c3ccc(OC)c(OC)c3)SCCCS2)cc1OC | 135 to 136
CC1(C)OC(=O)C(Oc2ccc(Cl)nc2)=C1c1ccc(S(C)(=O)=O)cc1 | 196 to 197
Cc1noc(NC(=O)N2CCN(c3cc(-c4ccc(F)cc4F)ncn3)CC2)c1C | 198 to 199
CCCCC[C@H]1CC[C@H](c2nc(Cl)c(OC)c(Cl)n2)CC1 | 29.5 to 30.4
Cc1sc2c(Br)c3ccccc3c(-c3ccc(OS(=O)(=O)c4ccc(C(=O)O)c(O)c4)c(C4CCCC4)c3)c2c1C | > 225
CC(C)(C)C(=O)c1c[nH]c2ncc(-c3cccc(OCc4ccccc4)c3)nc12 | 184 to 185
COc1ccc(C(=O)Nc2c(Cl)cncc2Cl)cc1OC1CC=CC1 | 193 to 195
O=C1c2cc3c(cc2-c2c1c(Cl)nc1ccccc21)OCO3 | 265 to 270
O=c1c2c[nH]c3ccccc3c-2nn1-c1ncccn1 | > 360
O=C1c2ccccc2C(=O)c2sc(-c3ccc(CO)o3)nc21 | > 260
CC1=Nc2ccc(C)cc2C(=O)C1 | 80 to 82
NC(=O)CCN1CCN(C(=O)c2cc(C(F)(F)F)cc(C(F)(F)F)c2)[C@H](Cc2c[nH]c3ccccc23)C1 | 80 to 100
Cc1cc2c(s1)Oc1ccccc1N=C2N1CCN(C)CC1 | 132 to 133
CC(C)c1ccc(-c2ccnc(-c3cccc(C(=O)O)c3)c2)cc1 | 233 to 234
CC(C)(C)c1ccc(S(=O)(=O)Nc2cc(OCCO)ncn2)cc1 | 169 to 170
Cc1nc(-c2ccccc2)cc(-c2cccc([N+](=O)[O-])c2)c1C(=O)NCCN(C)C | 143 to 145
COC(=O)CCCCCCCC(=O)Nc1c(I)c(C(=O)O)c(I)c(N(C)C(C)=O)c1I | 198 to 203
NS(=O)(=O)N(c1ccccc1)c1cccc(C(c2c(O)c3c(oc2=O)CCCCCC3)C2CC2)c1 (stereo not drawn) | 90 to 95
O=[N+]([O-])c1c(O)c(O)cc2c1C(=NO)CC2 | 200 to 201
NC(=O)c1sc2nccc(N3CCCN(c4ccc(F)cc4)CC3)c2c1N | 203 to 205
Nc1nc(N)nc(N(c2ccc(OCOc3ccc(N(c4nc(N)nc(N)n4)c4nc(N)nc(N)n4)cc3)cc2)c2nc(N)nc(N)n2)n1 | > 300
COc1cccc(-c2cn3cc(C(=O)NCCCCCCC(=O)NO)sc3n2)c1 | 209 to 211

SMILES | melting point [°C]
CCOC(=O)OC12Oc3cc(C(C)C)ccc3C1(O)C(=O)c1ccccc12 (stereo not drawn) | 144 to 147
CC(=O)c1ccc2c(c1)C=CC(=CCl)CO2 | 85 to 90
CC(=O)COc1c([N+](=O)[O-])ccc(F)c1C(C)=O | 64 to 65
COc1ccc(S(=O)(=O)N2CCCC2c2ccc(F)cc2)cc1 (racemic) | 134
CC(C)(C)OC(=O)[C@@H]1CC[C@H](CC(=O)N[C@@H](Cc2ccc(OCc3c(Cl)cccc3Cl)cc2)C(=O)O)N1Cc1ccccc1 | 80 to 83
COC1C(N(C)S(C)(=O)=O)c2cc(OCc3ccccc3)ccc2OC1(C)C (stereo not drawn) | 119 to 121
COc1ccccc1-c1ccc(C(=O)N2Cc3ccc(C(=O)O)n3Cc3ccccc32)cc1C | 133 to 135
N#Cc1cc(S(=O)(=O)c2ccc([N+](=O)[O-])cc2)cc(Br)n1 | 158 to 160
COC(=O)[C@@H]1CC[C@@H]2CN1C(=O)N2OCc1ccccc1 | 86
Cc1noc(C)c1Cn1cc(NC(=O)Cc2ccccc2)cn1 | 106 to 108
NC(=O)CNC(=O)c1ccnc(-c2cccc3cc(Cc4cccc(C(F)(F)F)c4)sc23)c1 | 176 to 177
CC(C)NC(=O)C(C)CN(C)C (stereo not drawn) | 67 to 69
Nc1nc2c(s1)CCN(CC=Cc1cccc3ccccc13)CC2 | 178 to 180
O=C(CNS(=O)(=O)c1ccc(N2CCC(c3ccccc3)CC2)cc1)NO | 164 to 166
Cc1cccc(C2COc3cc(O)c(O)cc3C2)c1 (stereo not drawn) | 146 to 148
CCCOc1ccc(F)c2c(=O)c(-c3ccc(OC)cc3)cn(CC(=O)NC3CCNCC3)c12 | 226 to 228
O=C1c2ccccc2C(=O)c2sc(-c3cc(Br)c(Br)o3)nc21 | > 260
COc1cc(-c2cc3ccccc3[nH]2)ccc1OS(=O)(=O)c1ccccc1 | 156
O=C(O)C(=O)c1ccco1 | 81 to 91
O=C1c2ccc(C#Cc3cccc4ccccc34)cc2C(=O)N1c1ccccc1 | 176 to 178
CC(C)OC(=O)c1cc(N=C=O)c(F)cc1Cl | 41 to 43
COC(=O)c1cccc(C(=O)c2[nH]c3cc(Cl)ccc3c2NC(C)=O)c1 | 190 to 193
c1ccc(OC2CCN(CCc3c[nH]c4ccccc34)CC2)cc1 | 123 to 125
CC(C)NC(=O)NOCc1nc2c(N)nc3ccccc3c2n1CC(C)(C)O | 231 to 233
Cn1nc(-c2ccc(F)cc2)c(-c2ccncc2)c1C=CCc1ccccc1 | 136 to 137

SMILES | melting point [°C]
IC#CCOc1cccnc1 | 130
Cc1c(N2CCC(O)CC2)c(F)cc2c(=O)c(C(=O)O)cn(C3CC3)c12 | 234 to 236
O=C(Nc1cccc(-c2c(-c3ccccc3)cnc3c(C(F)(F)F)cccc23)c1)Nc1ccccc1Cl | 192 to 195
Cn1c(Cl)c(C=C(C#N)S(C)(=O)=O)c2ccccc21 | 180
COc1ccc(C(=O)Nc2ccc3ccc(S(=O)CCN(C)C)nc3n2)cc1 (stereo not drawn) | 158
CS(=O)(=O)c1ccc(C(=O)O)c(Cl)c1OC1COC1 | 180 to 183
COC(=O)C1=Cc2cc(OCc3ccc(F)cc3)ccc2S(=O)(=O)CC1 | 141 to 143
NC(=O)C(Cc1ccccc1)NC(=O)Nc1n[nH]c(=S)s1 (stereo not drawn) | 175 to 177
Clc1ccc(-c2ncoc2-c2ccncc2)cc1Cl | 142
COc1ccc(C(=O)Nc2ccccc2)cc1NCc1ccc(O)c([N+](=O)[O-])c1 | 175 to 176
CCCc1c(OCCCOc2cccc(C(=O)NCCCCc3cccnc3)c2)ccc(C(C)=O)c1O | 84 to 86
COC(=O)c1ccc2c(c1)C=CC(=C(Cl)Cl)CO2 | 119 to 121
CCOC(=O)c1oc2cc(O)ccc2c(=O)c1C#N | 262 to 264
CCCNC(=O)c1nnc(NCc2cc(Br)ccc2OCc2ccccc2)s1 | 154
NC(=O)c1c(Cl)c(-c2ccccc2)n2c1CN(C(=O)CCC1CCCCC1)CC2 | 181 to 182
CCOC(=O)c1ncn2c1CN=C(c1ccccc1Cl)c1cc(Cl)ccc1-2 | 215 to 220
COC(=O)c1ccc2scc(Cl)c2n1 | 126 to 127
NC1=Nc2cc(Cl)ccc2Nc2cscc21 | 239 to 240
C#CCCN1CCC(O)(Cc2ccccc2)CC1 | 51 to 53
CCc1ncccc1NC(=NC#N)NC(NC(=O)Cc1ccc(Cl)cc1)C(C)(C)C (stereo not drawn) | 112 to 114
COC(=O)C(CC(C)C)NC(=O)c1cc([N+](=O)[O-])cc([N+](=O)[O-])c1 (stereo not drawn) | 143 to 145
CN(C)C(=O)N1N=C2c3cc(F)ccc3OC[C@@H]2[C@@H]1c1ccccc1 (racemic) | 117
CCOc1ccc(-n2c(NCc3ccc(Cl)cc3)nc3ccc(Cl)cc32)cc1 | 135 to 136
